pIC50: −log10 of the molar value.
Target: T1, full-length beta-Catenin (Uniprot ID P35222) (Homo sapiens, UniProt P35222)
T1 construct: 10 nM full-length beta-Catenin (Uniprot ID P35222)
T1 sequence (P35222 1-781): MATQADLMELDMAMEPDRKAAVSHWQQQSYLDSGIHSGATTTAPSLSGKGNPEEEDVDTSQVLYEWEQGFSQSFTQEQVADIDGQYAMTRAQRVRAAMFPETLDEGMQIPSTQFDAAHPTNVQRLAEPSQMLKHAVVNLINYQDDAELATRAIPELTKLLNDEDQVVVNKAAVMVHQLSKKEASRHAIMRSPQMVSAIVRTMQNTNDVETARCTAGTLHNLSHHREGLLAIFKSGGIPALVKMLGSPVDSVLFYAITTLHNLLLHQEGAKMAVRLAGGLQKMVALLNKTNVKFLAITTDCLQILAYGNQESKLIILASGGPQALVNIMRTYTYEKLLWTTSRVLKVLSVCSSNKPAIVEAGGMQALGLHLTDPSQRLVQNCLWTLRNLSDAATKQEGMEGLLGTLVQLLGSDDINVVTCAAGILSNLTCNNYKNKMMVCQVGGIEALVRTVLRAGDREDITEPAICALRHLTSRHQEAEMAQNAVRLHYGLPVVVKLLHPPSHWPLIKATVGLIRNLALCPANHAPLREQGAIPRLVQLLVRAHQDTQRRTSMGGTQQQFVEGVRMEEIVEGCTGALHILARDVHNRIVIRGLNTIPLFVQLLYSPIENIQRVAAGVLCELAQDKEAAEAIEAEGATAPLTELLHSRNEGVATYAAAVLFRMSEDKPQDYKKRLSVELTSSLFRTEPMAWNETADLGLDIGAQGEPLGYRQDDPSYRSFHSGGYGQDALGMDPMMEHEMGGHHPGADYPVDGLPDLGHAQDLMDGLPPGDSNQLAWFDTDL
Test: Fluorescence polarization IC50 (beta-catenin / 5FAM-TCF4 10-53 competition)
Type: binding
Details: fluorescence polarization; read-out: beta-Catenin FP IC50

pIC50 | Structure (SMILES)
6.32 | CC(=O)N1CCC[C@]12CC=CCCCC1(CCCC=CCOC(=O)N3CC(C(=O)N[C@@H](Cc4ccsc4)C(=O)N[C@@H](Cc4csc5ccccc45)C(=O)N[C@@H](CCC(N)=O)C(N)=O)(C3)NC(=O)[C@H](CC(N)=O)NC(=O)[C@H](Cc3ccccc3)NC(=O)[C@H](C)NC(=O)[C@H](C)NC(=O)[C@H](CC(=O)O)NC(=O)[C@H](CC(=O)O)NC1=O)NC(=O)[C@H](CC(C)(C)C)NC(=O)[C@H](CC(=O)O)NC2=O (stereo partly drawn) [I-1826, Ac-PL3-Asp-Npg-B5-Asp-Asp-Ala-Ala-Phe-Asn-Az-3Thi-BztA-Gln-NH2]
6.51 | CC(=O)N1CCC[C@]12CC=CCCCC1(CCCC=CCOC(=O)N3CC(C(=O)N[C@@H](Cc4ccsc4)C(=O)N[C@@H](Cc4csc5ccccc45)C(=O)N[C@@H](CCC(N)=O)C(N)=O)(C3)NC(=O)[C@H](CC(N)=O)NC(=O)[C@H](Cc3ccccc3)NC(=O)[C@H](C)NC(=O)[C@H](C)NC(=O)[C@H](CC(=O)O)NC(=O)[C@H](CC(=O)O)NC1=O)NC(=O)[C@H](CC(C)(C)C)NC(=O)[C@H](CC(=O)O)NC2=O (stereo partly drawn) [I-1827, Ac-PL3-Asp-Npg-B5-Asp-Asp-Ala-Ala-Phe-Asn-Az-3Thi-BztA-Gln-NH2]
6.18 | CC(=O)N1CCC[C@]12CC=CCCCC1(CCCC=CCOC(=O)N(C)CC[C@@](C)(C(=O)N[C@@H](Cc3ccsc3)C(=O)N[C@@H](Cc3csc4ccccc34)C(=O)N[C@@H](CCC(N)=O)C(N)=O)NC(=O)[C@H](CC(N)=O)NC(=O)[C@H](Cc3ccccc3)NC(=O)[C@H](C)NC(=O)[C@H](C)NC(=O)[C@H](CC(=O)O)NC(=O)[C@H](CC(=O)O)NC1=O)NC(=O)[C@H](CC(C)(C)C)NC(=O)[C@H](CC(=O)O)NC2=O (stereo partly drawn) [I-1829, Ac-PL3-Asp-Npg-B5-Asp-Asp-Ala-Ala-Phe-Asn-SdN-3Thi-BztA-Gln-NH2]
6.50 | CC(=O)N1CCC[C@]12CC=CCCCC1(CCCC=CCOC(=O)N(C)CC[C@@](C)(C(=O)N[C@@H](Cc3ccsc3)C(=O)N[C@@H](Cc3csc4ccccc34)C(=O)N[C@@H](CCC(N)=O)C(N)=O)NC(=O)[C@H](CC(C)C)NC(=O)[C@H](Cc3ccccc3)NC(=O)[C@H](C)NC(=O)[C@H](C)NC(=O)[C@H](CC(=O)O)NC(=O)[C@H](CC(=O)O)NC1=O)NC(=O)[C@H](CC(C)(C)C)NC(=O)[C@H](CC(=O)O)NC2=O (stereo partly drawn) [I-1830, Ac-PL3-Asp-Npg-B5-Asp-Asp-Ala-Ala-Phe-Leu-SdN-3Thi-BztA-Gln-NH2]
5.79 | CC(=O)N1CCC[C@]12CCCCCCC1(CCCCCCOC(=O)N3CC(C(=O)N[C@@H](Cc4ccsc4)C(=O)N[C@@H](Cc4csc5ccccc45)C(=O)N[C@@H](CCC(N)=O)C(N)=O)(C3)NC(=O)[C@H](CC(N)=O)NC(=O)[C@H](Cc3ccccc3)NC(=O)[C@H](C)NC(=O)[C@H](C)NC(=O)[C@H](CC(=O)O)NC(=O)[C@H](CC(=O)O)NC1=O)NC(=O)[C@H](CC(C)(C)C)NC(=O)[C@H](CC(=O)O)NC2=O (stereo partly drawn) [I-1831, Ac-PL3-Asp-Npg-B5-Asp-Asp-Ala-Ala-Phe-Asn-Az-3Thi-BztA-Gln-NH2]
5.95 | CC(=O)N1CCC[C@]12CCCCCCC1(CCCCCCOC(=O)N3CC(C(=O)N[C@@H](Cc4ccsc4)C(=O)N[C@@H](Cc4csc5ccccc45)C(=O)N[C@@H](CCC(N)=O)C(N)=O)(C3)NC(=O)[C@H](CC(C)C)NC(=O)[C@H](Cc3ccccc3)NC(=O)[C@H](C)NC(=O)[C@H](C)NC(=O)[C@H](CC(=O)O)NC(=O)[C@H](CC(=O)O)NC1=O)NC(=O)[C@H](CC(C)(C)C)NC(=O)[C@H](CC(=O)O)NC2=O (stereo partly drawn) [I-1832, Ac-PL3-Asp-Npg-B5-Asp-Asp-Ala-Ala-Phe-Leu-Az-3Thi-BztA-Gln-NH2]
7.62 | CC(=O)N1CCC[C@]12CC=CCCCC1(CCCC=CCCCOC(=O)N3CC[C@@](C(=O)N[C@@H](Cc4ccsc4)C(=O)N[C@@H](Cc4csc5ccccc45)C(=O)N[C@@H](CCC(N)=O)C(N)=O)(C3)NC(=O)[C@H](CC(C)C)NC(=O)[C@H](Cc3ccccc3)NC(=O)[C@H](C)NC(=O)[C@H](C)NC(=O)[C@H](CCN(CC(=O)O)CC(=O)O)NC(=O)[C@H](CC(=O)O)NC1=O)NC(=O)[C@H](CC(C)(C)C)NC(=O)[C@H](CC(=O)O)NC2=O (stereo partly drawn) [I-1836, Ac-PL3-Asp-Npg-B5-Asp-[CH2CO2H]GAbu-Ala-Ala-Phe-Leu-PyrS2-3Thi-BztA-Gln-NH2]
7.09 | CC(=O)N1CCC[C@]12CC=CCCCC1(CCCC=CCCCOC(=O)N3CC[C@@](C(=O)N[C@@H](Cc4ccsc4)C(=O)N[C@@H](Cc4csc5ccccc45)C(=O)N[C@@H](CCC(N)=O)C(N)=O)(C3)NC(=O)[C@H](CC(C)C)NC(=O)[C@H](Cc3ccccc3)NC(=O)[C@H](C)NC(=O)[C@H](C)NC(=O)[C@H](CCN(CCN3CCOCC3)CC(=O)O)NC(=O)[C@H](CC(=O)O)NC1=O)NC(=O)[C@H](CC(C)(C)C)NC(=O)[C@H](CC(=O)O)NC2=O (stereo partly drawn) [I-1842, Ac-PL3-Asp-Npg-B5-Asp-[MorphEt]GAbu-Ala-Ala-Phe-Leu-PyrS2-3Thi-BztA-Gln-NH2]
6.64 | CC(=O)N1CCC[C@]12CC=CCCCC1(CCCC=CCCCOC(=O)N3CC[C@@](C(=O)N[C@@H](Cc4ccsc4)C(=O)N[C@@H](Cc4csc5ccccc45)C(=O)N[C@@H](CCC(N)=O)C(N)=O)(C3)NC(=O)[C@H](CC(C)C)NC(=O)[C@H](Cc3ccccc3)NC(=O)[C@H](C)NC(=O)[C@H](C)NC(=O)[C@H](CNc3ccc([N+](=O)[O-])c(C(=O)O)c3)NC(=O)[C@H](CC(=O)O)NC1=O)NC(=O)[C@H](CC(C)(C)C)NC(=O)[C@H](CC(=O)O)NC2=O (stereo partly drawn) [I-1844, Ac-PL3-Asp-Npg-B5-Asp-[3COOH4NO2Ph]Dap-Ala-Ala-Phe-Leu-PyrS2-3Thi-BztA-Gln-NH2]
6.07 | CC(=O)N1CCC[C@]12CC=CCCCC1(CCCC=CCCCOC(=O)N3CC[C@@](C(=O)N[C@@H](Cc4ccsc4)C(=O)N[C@@H](Cc4csc5ccccc45)C(=O)N[C@@H](CCC(N)=O)C(N)=O)(C3)NC(=O)[C@H](CC(C)C)NC(=O)[C@H](Cn3cc(CN(C)C)nn3)NC(=O)[C@H](C)NC(=O)[C@H](C)NC(=O)[C@H](CN(CC(=O)O)CC(F)(F)F)NC(=O)[C@H](CC(=O)O)NC1=O)NC(=O)[C@H](CC(C)(C)C)NC(=O)[C@H](CC(=O)O)NC2=O (stereo partly drawn) [I-1855, Ac-PL3-Asp-Npg-B5-Asp-TfeGA-Ala-Ala-[CH2NMe2]TriAzDap-Leu-PyrS2-3Thi-BztA-Gln-NH2]
5.40 | CC(=O)N1CCC[C@]12CC=CCCCC1(CCCC=CCCCOC(=O)N3CC[C@@](C(=O)N[C@@H](Cc4ccsc4)C(=O)N[C@@H](Cc4csc5ccccc45)C(=O)N[C@@H](CCC(N)=O)C(N)=O)(C3)NC(=O)[C@H](CC(C)C)NC(=O)[C@H](Cn3cc(CN4CCNCC4)nn3)NC(=O)[C@H](C)NC(=O)[C@H](C)NC(=O)[C@H](CN(CC(=O)O)CC(F)(F)F)NC(=O)[C@H](CC(=O)O)NC1=O)NC(=O)[C@H](CC(C)(C)C)NC(=O)[C@H](CC(=O)O)NC2=O (stereo partly drawn) [I-1857, Ac-PL3-Asp-Npg-B5-Asp-TfeGA-Ala-Ala-[CH2Ppz]TriAzDap-Leu-PyrS2-3Thi-BztA-Gln-NH2]
5.96 | CC(=O)N1CCC[C@]12CC=CCCCC1(CCCC=CCCCOC(=O)N3CC[C@@](C(=O)N[C@@H](Cc4ccsc4)C(=O)N[C@@H](Cc4csc5ccccc45)C(=O)N[C@@H](CCC(N)=O)C(N)=O)(C3)NC(=O)[C@H](CC(C)C)NC(=O)[C@H](Cn3cc(CN4CCOCC4)nn3)NC(=O)[C@H](C)NC(=O)[C@H](C)NC(=O)[C@H](CN(CC(=O)O)CC(F)(F)F)NC(=O)[C@H](CC(=O)O)NC1=O)NC(=O)[C@H](CC(C)(C)C)NC(=O)[C@H](CC(=O)O)NC2=O (stereo partly drawn) [I-1858, Ac-PL3-Asp-Npg-B5-Asp-TfeGA-Ala-Ala-[MorphCH2]TriAzDap-Leu-PyrS2-3Thi-BztA-Gln-NH2]
5.96 | CC(=O)N1CCC[C@]12CC=CCCCC1(CCCC=CCCCOC(=O)N3CC[C@@](C(=O)N[C@@H](Cc4ccsc4)C(=O)N[C@@H](Cc4csc5ccccc45)C(=O)N[C@@H](CCC(N)=O)C(N)=O)(C3)NC(=O)[C@H](CC(C)C)NC(=O)[C@H](Cn3cc(CN4CCOCC4)nn3)NC(=O)[C@H](C)NC(=O)[C@H](C)NC(=O)[C@H](CN(CC(=O)O)CC(F)(F)F)NC(=O)[C@H](CC(=O)O)NC1=O)NC(=O)[C@H](CC(C)(C)C)NC(=O)[C@H](CC(=O)O)NC2=O (stereo partly drawn) [I-1859, Ac-PL3-Asp-Npg-B5-Asp-TfeGA-Ala-Ala-[MorphCH2]TriAzDap-Leu-PyrS2-3Thi-BztA-Gln-NH2]
6.29 | CC(=O)N1CCC[C@]12CC=CCCCC1(CCCC=CCCCOC(=O)N3CC[C@@](C(=O)N[C@@H](Cc4ccsc4)C(=O)N[C@@H](Cc4csc5ccccc45)C(=O)N[C@@H](CCC(N)=O)C(N)=O)(C3)NC(=O)[C@H](CC(C)C)NC(=O)[C@H](Cn3cc(CN4CCS(=O)(=O)CC4)nn3)NC(=O)[C@H](C)NC(=O)[C@H](C)NC(=O)[C@H](CN(CC(=O)O)CC(F)(F)F)NC(=O)[C@H](CC(=O)O)NC1=O)NC(=O)[C@H](CC(C)(C)C)NC(=O)[C@H](CC(=O)O)NC2=O (stereo partly drawn) [I-1860, Ac-PL3-Asp-Npg-B5-Asp-TfeGA-Ala-Ala-[SO2MorphCH2]TriAzDap-Leu-PyrS2-3Thi-BztA-Gln-NH2]

Source: patent US20240116985A1, “STAPLED PEPTIDES AND METHODS THEREOF” (priority 2020, published 2024)
